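Where inhibition never reached the appropriate level, the endpoint shown equals the highest concentration tested. Otherwise, values were interpolated linearly from a five-concentration, 48-hour dose response in 96-well plates. GI50 is the concentration that inhibits growth by half. TGI: concentration producing complete growth inhibition.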 Bounds are passed on as bounds.

What all share (assay): NCI-60 cell line screen, 48 h
Assay [1] deals with HCC-2998 colon.
Assay [2] has as its system MDA-MB-231 breast.
Assay [3] concerns MOLT-4 leukemia.
Assay [4] deals with NCI-H23 lung.
For assay [5], the system named is NCI-H460 lung.
Assay [6] has as its system OVCAR-8 ovarian.
Assay [7] deals with SK-MEL-5 melanoma.
The subject of assay [8] is SK-OV-3 ovarian.
For assay [9], the system named is SNB-19 CNS.
Assay [10] relates to SW-620 colon.

Turning to `CC[N+](CC)=c1sc2c(s1)C(c1ccc(Cl)cc1)Oc1ccc(Cl)cc1-2` (centres undefined), the GI50 is 1.52 µM in assay [1]; 1.93 µM in assay [2]; 2.16 µM in [3]; 1.07 µM in [4]; 0.503 µM in assay [5]; 1.97 µM in [6]. Besides, the GI50 in assay [7] is 1.22 µM; in assay [8] it was 2.51 µM; in [9] it was 0.487 µM; in assay [10], 1.08 µM. Besides, the TGI worked out at 3.74 µM in assay [1]; 4.35 µM in assay [2]; 6.41 µM in assay [3]; 6.79 µM in assay [4]; 1.89 µM in [5]; 5.41 µM in [6]. For the same molecule, the TGI in assay [7] worked out at 2.53 µM; in assay [8], 8.72 µM; in assay [9], 1.84 µM; in [10], 2.72 µM.

Regarding `Cc1nc(SCC(=O)Nc2nc(-c3ccc(Cl)cc3)cs2)n(Nc2ccccc2)c1C`, the GI50 in assay [1] is 10.6 µM; in [2], 3.01 µM; in [3] it was 2.51 µM; in assay [4] it was 1.85 µM; in assay [5], 2.89 µM; in assay [6] it was 2.71 µM. Also, the GI50 was 2.24 µM in assay [7], 5.91 µM in assay [8], 9.41 µM in assay [9] and 5.5 µM in assay [10]. Besides, the TGI was determined as 29.5 µM in assay [1]; 15.2 µM in assay [2]; 9.94 µM in [3]; 6.02 µM in assay [4]; 11 µM in [5]; 7.73 µM in assay [6]. Moreover, the TGI in assay [7] was determined as 6.31 µM; in assay [8] it was 19.8 µM; in assay [9], 24.6 µM; in assay [10] it was 22.9 µM.

With `C=C1C(O)C2C(=C(CCc3ccccc3)C13CC3)C(=O)C(C)(CO)C2O` (centres undefined), the GI50 in assay [1] is above 100 µM; in assay [2] it was above 100 µM; in assay [3], 64.1 µM; in assay [4] it was above 100 µM; in [5], above 100 µM; in [6], above 100 µM. Besides, the GI50 in assay [7], in [9] and in [10] was above 100 µM in each case. Moreover, the TGI in assay [1], in assay [2], in assay [3], in assay [4], in assay [5] and in assay [6] was above 100 µM throughout. For the same molecule, the TGI in assay [7], in assay [9] and in assay [10] was above 100 µM in each case.

With `O=C1c2ccccc2-c2c1c1c(=O)[nH]c3ccccc3c1n2Cc1ccccc1`, the GI50 in assay [2] is 20.5 µM; in assay [3], above 100 µM; in assay [4], 20.5 µM; in assay [5], 61.7 µM; in assay [6], 51 µM; in [7], above 100 µM. The GI50 was 20.7 µM in assay [8], 25.1 µM in assay [9] and above 100 µM in [10]. For the same molecule, the TGI is 48 µM in assay [2]; above 100 µM in assay [3]; 46.8 µM in assay [4]; above 100 µM in [5]; above 100 µM in assay [6]; above 100 µM in [7]. Further, the TGI was 45.8 µM in assay [8], 65.5 µM in [9] and above 100 µM in assay [10].

In the case of `CN(C)CCCNC(=O)c1cc(NC(=O)c2cc(NC(=O)CCc3c[nH]c4ccccc34)cn2C)cn1C`, the GI50 in assay [2], in assay [3], in assay [4], in [5], in [6] and in assay [7] was above 100 µM each time. In addition, the GI50 in [8], in assay [9] and in assay [10] was above 100 µM each time. In addition, the TGI in assay [2], in assay [3], in [4], in assay [5], in assay [6] and in assay [7] was above 100 µM in each case. The TGI in assay [8], in [9] and in [10] was above 100 µM throughout.

As for `CC(C)(C)C(=O)c1c(C(F)(F)F)n([O-])c2ccccc2[n+]1=O`, the GI50 in assay [2] was 0.56 µM; in assay [3], 0.157 µM; in [4] it was 1.17 µM; in [5], 0.439 µM; in assay [6] it was 0.254 µM; in assay [7], 0.24 µM. The GI50 in assay [8] is 1.67 µM; in assay [9], 0.931 µM; in assay [10], 0.467 µM. Also, the TGI came out at 2.3 µM in [2]; 0.853 µM in [3]; 2.39 µM in assay [4]; 1.52 µM in assay [5]; 1.35 µM in assay [6]; 0.83 µM in assay [7]. Further, the TGI came out at 3.07 µM in assay [8], 2.91 µM in assay [9] and 2 µM in assay [10].

For the molecule `COc1ccc(S(=O)(=O)N2CC(C)(C)CN(S(=O)(=O)c3ccc(OC)cc3)C2C(=O)NO)cc1`, the GI50 is above 16.2 µM in assay [2]; above 11 µM in [3]; above 20 µM in assay [4]; above 20 µM in assay [5]; above 20 µM in assay [6]; above 20 µM in [8]. In addition, the GI50 in assay [9] and in assay [10] was above 20 µM throughout. The TGI in assay [2] is above 20 µM; in assay [3], above 20 µM; in [4] it was above 20 µM; in [5], above 20 µM; in assay [6], above 20 µM; in assay [7] it was above 7.63 µM. Also, the TGI in assay [8], in assay [9] and in assay [10] was above 20 µM in each case.
